Patent US7070767B2, “Fossorial rodent control compositions and methods” (priority 1998, dated 2006)

Test system: rodents
Assay: effectiveness of respiratory irritants in the foam in hastening the death of rodents
Format: in vivo
Conditions: rodents that inhaled the foam/irritant combination
Method: Furthermore, it is available in commercial quantities in a finely ground form which disperses quickly and evenly into the concentrated foaming agent and remains suspended as the foaming agent is diluted and aerated. Alternative respiratory irritants may share all of or many of these characteristics and include ground horseradish and powdered elemental sulphur.
In the preferred embodiment, a concentrated composition is made by mixing the foaming agent in liquid concentrate form with the mustard powder, preferably in an approximate 3:1 ratio by weight, with the goal of achieving a 1% (w:v) foaming agent concentration and approximately 0.3% to 0.5% (w:v) mustard concentration when the concentrate is diluted to a use level. The proprietary concentrated foaming agents have specific gravities of approximately 1.029 kg per liter and it is generally recommended by the respective manufacturers that it be used in 0.1% to 1% concentration.

Q: Which “effectiveness as respiratory irritant in the foam” value does the source give for `[S]` [powdered elemental sulphur, elemental sulphur] here?
A: effective but less so than the ground mustard
